Assay results reported in US7799770B2, “Solid body forms of mesoprogestin 11β-{4E-(hydroxyiminomethyl)-phenyl}-17α methoxymethyl-17β-methoxy-estra-4,9-dien-3-one” (Bayer Schering Pharma AG, priority 2000, dated 2010).

Columns and labels:
[1] = Solubility in toluene; type: physicochemical
From the text: The production of the solvate form that is suitable for the solid final form of the oxime can be associated, according to the invention, with the separation of the Z-isomer and the dioximes. By a specific use of the thermodynamic instability of suitable solvates, preferably the solvate of methyl-tert-butyl ether (MTBE) in a solvent environment that is suitable for this purpose, complete dissolution of the solvate lattice is possible far above the solubility limit and even close to room temperature. […] A so-called cold melting is carried out. This state can be kept stable by adding suitable solvents as recrystallization inhibitors for technical applications. The supersaturation state can be stabilized for hours in toluene solution by adding only 5% by volume of methanol. Then, by adding solvating agent-solvent (MTBE) at suitable concentration (e.g., 100-130% by volume of MTBE, relative to the toluene that is used), the solvate lattice is built up again, whereby the contaminants remain in solution for the most part.

[2] = target: T1, progesterone receptor (Homo sapiens, UniProt P06401); settings: according to EP-A-0 648 778 or DE-A-43 32 283; cited from earlier work
T1 sequence (P06401 1-933): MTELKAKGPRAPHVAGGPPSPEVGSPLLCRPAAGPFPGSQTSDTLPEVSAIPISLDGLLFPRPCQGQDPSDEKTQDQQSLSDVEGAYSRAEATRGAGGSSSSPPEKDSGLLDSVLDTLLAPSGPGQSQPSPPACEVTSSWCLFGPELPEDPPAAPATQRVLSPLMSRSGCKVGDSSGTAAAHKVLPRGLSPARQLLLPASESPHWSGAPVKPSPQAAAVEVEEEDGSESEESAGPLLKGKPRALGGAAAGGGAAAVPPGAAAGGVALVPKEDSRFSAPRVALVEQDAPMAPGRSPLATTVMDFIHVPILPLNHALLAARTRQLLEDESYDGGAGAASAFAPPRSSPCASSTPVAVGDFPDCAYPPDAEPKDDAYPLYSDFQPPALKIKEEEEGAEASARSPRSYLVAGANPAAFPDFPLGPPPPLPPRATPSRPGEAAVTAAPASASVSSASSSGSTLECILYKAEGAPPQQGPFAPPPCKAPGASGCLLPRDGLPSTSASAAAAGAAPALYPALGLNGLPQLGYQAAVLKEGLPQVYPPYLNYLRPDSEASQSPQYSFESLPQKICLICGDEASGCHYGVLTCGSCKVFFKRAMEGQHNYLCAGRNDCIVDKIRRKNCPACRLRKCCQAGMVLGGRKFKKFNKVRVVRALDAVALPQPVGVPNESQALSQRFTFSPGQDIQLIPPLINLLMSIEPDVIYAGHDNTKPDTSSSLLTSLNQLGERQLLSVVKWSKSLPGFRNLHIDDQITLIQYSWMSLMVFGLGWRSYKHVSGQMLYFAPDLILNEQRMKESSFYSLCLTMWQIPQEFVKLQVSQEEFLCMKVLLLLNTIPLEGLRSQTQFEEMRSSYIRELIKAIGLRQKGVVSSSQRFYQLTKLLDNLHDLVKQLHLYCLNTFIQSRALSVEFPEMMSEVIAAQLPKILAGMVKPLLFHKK

[3] = system: antiglucocorticoidal activity; settings: according to EP-A-0 648 778 or DE-A-43 32 283; cited from earlier work
[4] = Solubility studies (saturation solubility in water without and with 0.25% SDS); type: physicochemical
Method: 200 mg of substance was added at 25° C. into 50 ml of water (without and with 0.25% SDS (sodium lauryl sulfate)). Samples were taken after 0.5 hour, 2 hours, 5 hours and 24 hours.
Sampling: 0.45 μm filter attachment, dilution 1:1 with MeOH, HPLC.

[5] = Shelf life / accelerated ICH-stability test; type: physicochemical
Method: In FIG. 5, an x-ray-powder diffractogram of amorphous 11β-[4E-(hydroxyiminomethyl)phenyl]-17α-methoxymethyl-17β-methoxy-estra-4,9-dien-3-one is depicted at time 0 (start), after 12 months at 25° C. and after 12 months at 40° C.
(§1) By the stability, negative influences of such conversions on the bio-availability of the active ingredient are avoided.

[6] = Stability of the physical structure during pharmaceutical processing (wet granulation, pelletizing); type: physicochemical
From the text: as §1

Which solubility in toluene [1] does the source give for `COC[C@]1(OC)CC[C@H]2[C@@H]3CCC4=CC(=O)CCC4=C3[C@@H](c3ccc(/C=N/O)cc3)C[C@@]21C` [MTBE solvate, 11β-[4E-(hydroxyiminomethyl)phenyl]-17α-methoxymethyl-17β-methoxy-estra-4,9-dien-3-one] here?
The solubility in toluene was 3.3 % by weight.

For `COC[C@]1(OC)CC[C@H]2[C@@H]3CCC4=CC(=O)CCC4=C3[C@@H](c3ccc(/C=N/O)cc3)C[C@@]21C` [Oxime J867, 11β-[4E-(hydroxyiminomethyl)phenyl]-17α-methoxymethyl-17β-methoxy-estra-4,9-dien-3-one], which “activity on the progesterone receptor compared with RU 486 (mifepristone)” value [2] is on record?
Its value is “same activity as RU 486 (mifepristone)”.

What about the “antiglucocorticoidal activity compared with RU 486” value [3] of the same compound?
Its value is “significantly reduced”.

For `COC[C@]1(OC)CC[C@H]2[C@@H]3CCC4=CC(=O)CCC4=C3[C@@H](c3ccc(/C=N/O)cc3)C[C@@]21C` [amorphous form of oxime J867, 11β-[4E-(hydroxyiminomethyl)phenyl]-17α-methoxymethyl-17β-methoxy-estra-4,9-dien-3-one], which “time for which the high supersaturation level remains stable” value ([4]; in surfactant solution (sodium lauryl sulfate)) is on record?
Its value is “stable for several hours”.

What about the “time for which the high supersaturation level remains stable” value ([4]; in water) of the same compound?
Its value is “over 24 hours”.

And the “signs of recrystallization and/or chemical decomposition of the amorphous structure” value ([5]; after 12 months, 40° C., 75% relative humidity)?
The value was “does not show any signs of a recrystallization and/or chemical decomposition”.

And the “physical structure during pharmaceutical processing (conversion amorphous to highly crystalline, E/Z isomerization)” value [6]?
Its value is “remains stable”.

With `COC[C@]1(OC)CC[C@H]2[C@@H]3CCC4=CC(=O)CCC4=C3[C@@H](c3ccc(/C=N/O)cc3)C[C@@]21C` [highly crystalline form of oxime J 867, 11β-[4E-(hydroxyiminomethyl)phenyl]-17α-methoxymethyl-17β-methoxy-estra-4,9-dien-3-one ansolvate] as the compound, how does the “chemical stability compared with the amorphous form” value ([5]; especially under stress (high temperatures and humidities)) read?
Its value is “higher than that of the amorphous form”.
